molecular target: Mucolipin-3 (Homo sapiens) (UniProt Q8TDD5); assay: whole-cell currents from mucolipin-3 agonists – HEK293, whole-cell patch clamp, -80 mV, orthogonal assay, late-stage follow-up (AID 2694); details: HEK293 TRPML3, whole-cell patch clamp current; at 10 µM; active compounds read low
Sequence (Q8TDD5 whole entry, looked up): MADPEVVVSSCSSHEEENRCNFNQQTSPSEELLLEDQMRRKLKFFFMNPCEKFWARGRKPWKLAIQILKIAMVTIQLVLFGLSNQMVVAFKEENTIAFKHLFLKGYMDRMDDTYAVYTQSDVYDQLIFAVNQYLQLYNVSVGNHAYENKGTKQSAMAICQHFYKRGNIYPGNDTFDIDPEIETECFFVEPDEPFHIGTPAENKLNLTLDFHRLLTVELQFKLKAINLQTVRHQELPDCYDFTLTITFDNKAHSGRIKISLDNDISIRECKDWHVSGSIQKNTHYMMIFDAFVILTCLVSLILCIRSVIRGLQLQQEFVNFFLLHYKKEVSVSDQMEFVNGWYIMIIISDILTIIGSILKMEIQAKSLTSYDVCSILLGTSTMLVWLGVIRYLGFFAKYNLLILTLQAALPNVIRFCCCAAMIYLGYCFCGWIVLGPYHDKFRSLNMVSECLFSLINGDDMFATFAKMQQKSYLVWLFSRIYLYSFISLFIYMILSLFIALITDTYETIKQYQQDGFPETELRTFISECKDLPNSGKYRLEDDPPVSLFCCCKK

Current density at -80 mV, active:
CCOc1ccc(S(=O)(=O)N2CCCCCC2)c2ccccc12 -0.19 nA/pF
CC1CCN(S(=O)(=O)c2ccc(C(C)C)cc2)CC1 -0.02 nA/pF
Cc1ccc(S(=O)(=O)n2nccc2-c2c(-c3ccc(Cl)cc3)noc2C)cc1 -0.14 nA/pF

From PubChem BioAssay AID2694 (The Scripps Research Institute Molecular Screening Center, 2010)
